Marks after values point to notes of the source that are not given here.
Experiments:
liver and kidney of mice = assay: Subacute toxicity test: liver and kidney histopathology; details: 20 mg/kg, positive control (group g)
Procedure: (§1) The negative control group (group a) was treated with 0.2 mL of the vehicle, while the positive control group (group g) was also treated with the 20 mg/kg dosage of cyclophosphamide. […] The blood samples were collected for haematological analysis, while the liver and kidney were also collected for histopathological analysis and fixed in 10% formalin.
The tissues were sliced into small pieces not more than 4 mm thick and then submerged in 10% formal saline for 24 h to fix, according to the protocols of [Avwioro et al., (2010)] for histopathology investigations. The tissue processing was carried out automatically using an automatic tissue processor (Leica TP 1020) by letting the tissues pass through several reagents: 10% formal saline was used in Stations 1 and 2, and alcohol in Stations 3 through 7 was used to dehydrate the tissues. The tissues were then moved into Stations 10 to 12, which contained wax for infiltration or impregnation, after passing through Stations 8 and 9, which contained xylene for the purpose of […]. Tissues stayed in each station for 1 hour during the 12-h duration of these operations. The tissues were then covered with molten paraffin wax, allowed to cool on ice, and then sectioned at a 4-micrometer interval. These parts were picked up using clean, labeled slides and floated in a water bath set at 55°C. […]

[1] = test system: bone marrow cells of mice; assay: Micronucleus (MN) assay; details: SEM
Procedure: as §1
The animals used for the subacute toxicity test were also used for the MN assay because the treatment follows the same procedure, but the positive control, cyclophosphamide (group g) for MN, is a single-dose treatment that was given intraperitoneally. The MN assay was carried out as described by Jain and Pandey ([Jain and Pandey, 2019]), four animals were sacrificed from each group by cervical dislocation, and both femurs were removed. The epiphyses were removed from the femur, and the bone marrow was flushed with fetal bovine serum (FBS) into Eppendorf tubes (1.5 mL). After a light tap to ensure appropriate cell dispersion, it was centrifuged at 2,000 rpm for 5 minutes. The pellet was suspended in another 1 mL of FBS in the Eppendorf tube, thoroughly mixed using a micropipette, and centrifuged once more at the same rate after the supernatant was discarded. Once more, the supernatant was removed, and the pellet was mixed with 0.5 mL of FBS before a few drops of the viscous mixture were dropped on a clean, oil-free slide. This drop was spread on the slide and allowed to air dry.
The slides were stained with 0.4% May-Grunewald stain for 3-4 min and were immediately transferred into another coupling jar containing May-Grunewald and distilled water (ratio 1:1) and allowed to stain for another 3-4 min. The slides were rinsed in distilled water and allowed to dry completely. Then, it was also stained in 5% Giemsa stain for 5 min, rinsed in distilled water, and allowed to dry completely. A minimum of 1,000 cells from each mouse were examined for micronuclei in polychromatic erythrocytes (MNPCE) using a light microscope at a magnification of 1,000X (oil immersion). The relative size of the erythrocytes and the difference in staining between PCEs (bluish-purple) and normochromatic erythrocytes (NCEs, pink-orange) are used to distinguish between them.

[2] = Weight of experimental animals for toxicity test; details: SEM
Procedure: as §1

Plasmodium berghei ANKA [3] = assay: Peter's 4-day suppressive test; type: in vivo; details: 4 days, D4; for Suppressive parasitemia (%): n = 5, ±SEM
Procedure: (§2) Twenty-five (25) albino mice (weighing 22 ± 2 g) were randomly divided into five (5) groups of five animals per group (n = 5). Parasitized blood was obtained from infected donor mouse with rising parasitaemia (≥ 20%) by cardiac puncture and the infected blood was diluted with phosphate saline glucose buffer (PSG-mouse) to attain an estimate of 5 × 10^7 red blood cells per ml. Then, 0.2 mL of inoculum containing 1 × 10^7 infected RBCs was injected into the abdominal cavity of experimental animals by intraperitoneal (ip) injection.
(§3) All drugs were administered orally for 4 days.
(§4) The chemo-suppressive effect of HA in mice infected with P. berghei was assessed using Peter’s 4-day suppressive test. The mice were infected with the malaria parasite inoculum (1 × 10^7 P.berghei ANKA) on the first day of the experiment (D0) and treated as indicated in the section above on Animal Grouping and Drug Administration after 2 h post-infection. The treatment continues for another three consecutive days. Each mouse’s parasitaemia level was assessed 96 h after infection (D4). Animals in each group had their PCV, rectal temperature, and body weight measured both before and after the experiment.
Parasitaemia was determined by counting the number of infected RBCs (minimum of four fields per slide) using a light microscope with an objective lens magnification power of 1,000x. Percentage parasitaemia and percentage chemo-suppression were calculated using the modified Peters and Robinson formula ([Nyandwaro et al., 2020]): % parasitemia=number of parasitized RBCs/total number of RBC count×100 % chemo−suppression=% parasitemia in negative control− % parasitemia in study group/% parasitemia in negative control×100

Plasmodium berghei ANKA [4] = assay: Mean survival time of P. berghei-infected mice; type: in vivo; details: 4 days, monitored 30 days, n = 5, ±SEM
Procedure: as §2, §3
The survival rate was monitored from the first day of the treatment to 30 days. Each mouse’s mortality was monitored and recorded in days. The mean survival time (MST) of mice in each group was determined, as shown below. MST=sum of survival time of all mice in a group in days/total number of mice in a group

[5] = test system: Plasmodium berghei infected mice; assay: Body weight, rectal temperature and packed cell volume in the suppressive test; type: in vivo, Mus musculus; details: SEM; for Weight (g) initial / Temperature (°C) initial: before the experiment; for Weight (g) initial / Temperature (°C) initial / Weight (g) final / Temperature (°C) final: n = 5; for PCV (%) DAY 0: first day of infection; for Temperature (°C) initial / Temperature (°C) final: rectal; for Percentage change in PCV (%) DAY 0 / Percentage change in temperature (%) / Weight (g) final / PCV (%) DAY 4 / Percentage change in weight (%) / Temperature (°C) final / PCV (%) DAY 9 / Percentage change in PCV (%) DAY 9: 4 days; for Weight (g) final / Temperature (°C) final: after the experiment; for PCV (%) DAY 4: fifth day after infection; for Percentage change in weight (%): infected mice; for PCV (%) DAY 9 / Percentage change in PCV (%) DAY 9: tenth day after infection
Procedure: as §2, §3, §4
Blood samples were taken from each mouse’s tail using heparinized capillary tubes, sealed, and then put into a micro haematocrit centrifuge to calculate the packed cell volume of the blood. After being centrifuged for 5 min at 12,000 rpm, the blood samples’ PCV was calculated using the following formula: Packed Cell Volume=volume of erythrocyes in a given volume of blood/total volume of blood×100
The body weight and rectal temperature of each mouse were also determined using a sensitive digital weighing balance and rectal thermometer, respectively.

[6] = 20 mg/kg/bwt single dose intraperitoneally

O=P1(N(CCCl)CCCl)NCCCO1 (stereo not shown) [CYP, Cyclophosphamide]
Kidney histological presentation (liver and kidney of mice): normal architecture | Liver histological presentation (liver and kidney of mice): normal architecture | MnNCE (micronucleated normochromatic erythrocytes) [1, 6]: 100.9 ± 11.99 | MnPCE (micronucleated polychromatic erythrocytes) [1, 6]: 225.9 ± 8.84 | Others (other abnormalities) [1, 6]: 119.2 ± 19.59 | PCE: NCE (polychromatic erythrocytes/normochromatic erythrocytes ratio) [1, 6]: 0.51 ± 0.04 | Weight (g) final ([2]; 20 mg/kg (positive control), n = 5): 24.43 ± 0.25 g | Percentage change in weight (%) ([2]; 20 mg/kg (positive control), toxicity test): −0.50 ± 0.34% | Weight (g) initial ([2]; 20 mg/kg group (positive control), toxicity test, n = 5): 24.53 ± 0.27 g

CCCCCCCCCCCCCCCC(=O)O [HA, n-Hexadecanoic acid]
Percentage chemosuppression (%) (Plasmodium berghei ANKA [3]; 10 mg/kg oral): 71.58% | Suppressive parasitemia (%) (Plasmodium berghei ANKA [3]; 10 mg/kg oral): 1.89 ± 0.30^ab % | Percentage chemosuppression (%) (Plasmodium berghei ANKA [3]; 50 mg/kg oral): 83.80% | Suppressive parasitemia (%) (Plasmodium berghei ANKA [3]; 50 mg/kg oral): 1.08 ± 0.29 ^a % | Percentage chemosuppression (%) (Plasmodium berghei ANKA [3]; 100 mg/kg oral): 89.74% | Suppressive parasitemia (%) (Plasmodium berghei ANKA [3]; 100 mg/kg oral): 0.68 ± 0.18 ^a % | MST (days) (Plasmodium berghei ANKA [4]; 10 mg/kg oral): 15.60 ± 2.62 ^d days | MST (days) (Plasmodium berghei ANKA [4]; 50 mg/kg oral): 9.20 ± 1.16 ^d days | MST (days) (Plasmodium berghei ANKA [4]; 100 mg/kg oral): 11.40 ± 1.6 ^d days | Weight (g) initial ([5]; 10 mg/kg group): 22.88 ± 0.47 g | PCV (%) DAY 0 ([5]; 10 mg/kg group): 42.63 ± 1.25% | Temperature (°C) initial ([5]; 10 mg/kg group): 32.26 ± 0.33 °C | Percentage change in PCV (%) DAY 0 ([5]; 10 mg/kg oral): 6.00 ± 13.99% | Percentage change in temperature (%) ([5]; 10 mg/kg oral): −6.08 ± 1.60% | Weight (g) final ([5]; 10 mg/kg oral): 19.24 ± 0.81 g | PCV (%) DAY 4 ([5]; 10 mg/kg oral): 43.75 ± 5.11% | Percentage change in weight (%) ([5]; 10 mg/kg oral): −15.99 ± 2.63% | Temperature (°C) final ([5]; 10 mg/kg oral): 30.28 ± 0.24 °C | PCV (%) DAY 9 ([5]; 10 mg/kg oral): 23.12 ± 0.46% | Percentage change in PCV (%) DAY 9 ([5]; 10 mg/kg oral): −45.54 ± 3.26% | Weight (g) initial ([5]; 50 mg/kg group): 24.48 ± 0.71 g | PCV (%) DAY 0 ([5]; 50 mg/kg group): 46.60 ± 2.88% | Temperature (°C) initial ([5]; 50 mg/kg group): 32.20 ± 0.32 °C | Percentage change in PCV (%) DAY 0 ([5]; 50 mg/kg oral): 3.54 ± 3.53% | Percentage change in temperature (%) ([5]; 50 mg/kg oral): −6.56 ± 1.17% | Weight (g) final ([5]; 50 mg/kg oral): 22.94 ± 1.24 g | PCV (%) DAY 4 ([5]; 50 mg/kg oral): 48.20 ± 3.14% | Percentage change in weight (%) ([5]; 50 mg/kg oral): −6.46 ± 2.75% | Temperature (°C) final ([5]; 50 mg/kg oral): 30.08 ± 0.37 °C | PCV (%) DAY 9 ([5]; 50 mg/kg oral): 22.93 ± 4.57% | Percentage change in PCV (%) DAY 9 ([5]; 50 mg/kg oral): −51.35 ± 8.51% | Weight (g) initial ([5]; 100 mg/kg group): 22.19 ± 0.40 g | PCV (%) DAY 0 ([5]; 100 mg/kg group): 40.94 ± 2.51% | Temperature (°C) initial ([5]; 100 mg/kg group): 32.20 ± 0.06 °C | Percentage change in PCV (%) DAY 0 ([5]; 100 mg/kg oral): 5.03 ± 2.78% | Percentage change in temperature (%) ([5]; 100 mg/kg oral): −6.39 ± 1.59% | Weight (g) final ([5]; 100 mg/kg oral): 19.99 ± 0.31 g | PCV (%) DAY 4 ([5]; 100 mg/kg oral): 43.00 ± 5.03% | Percentage change in weight (%) ([5]; 100 mg/kg oral): −9.77 ± 2.56% | Temperature (°C) final ([5]; 100 mg/kg oral): 30.14 ± 0.46 °C | PCV (%) DAY 9 ([5]; 100 mg/kg oral): 25.42 ± 12.08% | Percentage change in PCV (%) DAY 9 ([5]; 100 mg/kg oral): −39.10 ± 10.67% | MnNCE (micronucleated normochromatic erythrocytes) ([1]; 2 mg/kg oral, 14 days): 3.42 ± 0.30 | MnPCE (micronucleated polychromatic erythrocytes) ([1]; 2 mg/kg oral, 14 days): 6.25 ± 0.88 | MnNCE (micronucleated normochromatic erythrocytes) ([1]; 5 mg/kg oral, 14 days): 3.17 ± 0.74 | MnPCE (micronucleated polychromatic erythrocytes) ([1]; 5 mg/kg oral, 14 days): 9.08 ± 1.30 | MnNCE (micronucleated normochromatic erythrocytes) ([1]; 10 mg/kg oral, 14 days): 6.67 ± 2.25 | MnPCE (micronucleated polychromatic erythrocytes) ([1]; 10 mg/kg oral, 14 days): 11.58 ± 2.00 | MnNCE (micronucleated normochromatic erythrocytes) ([1]; 50 mg/kg oral, 14 days): 7.19 ± 0.98 | MnPCE (micronucleated polychromatic erythrocytes) ([1]; 50 mg/kg oral, 14 days): 18.86 ± 1.74 | MnNCE (micronucleated normochromatic erythrocytes) ([1]; 100 mg/kg oral, 14 days): 8.00 ± 0.84 | MnPCE (micronucleated polychromatic erythrocytes) ([1]; 100 mg/kg oral, 14 days): 23.11 ± 0.58

Reference: article PMC11371785 (Frontiers in Pharmacology, 2024)
